# Experiments:
# [1] = in vivo; parameters: species or system Hunde (Beagle); conditions: dog, 5 mg/kg
# Method: Die verbesserten pharmakokinetischen Eigenschaften der erfindungsgemäßen Substanz aus […] Enrofloxacin in einer Serumkinetik-Studie an Hunden gezeigt werden. Die Substanzen wurden in einer Dosierung von 5 mg/kg Körpergewicht an jeweils 6 Hunden […] Beagle geprüft. Dabei […].), intramuskulär (i. m.) und oral in […] Cross-Over-Anordnung zur Anwendung. Bei allen Applikationsarten konnte gezeigt werden, dass mit der erfindungsgemäßen Substanz aus […]1/2) und […] und somit eine größere Substanzmenge im Organismus zur […] unter der Serumspiegelkurve, AUC0-24).
# [2] = test system: Streptococcus agalactiae Scc 9549; experiment: MIC (MHK), agar serial dilution on Iso-Sensitest agar; type: cell-based; conditions: SCC9549, Stamm Scc 9549, 37°C, read after ca. 20 h, read-out: MHK-Werte
# [3] = test system: Pseudomonas aeruginosa P 9503; experiment: as above; type: cell-based; conditions: P9503, Stamm P 9503, 37°C, read after ca. 20 h, read-out: MHK-Werte
# [4] = test system: Actinomyces pyogenes Am 9602; experiment: as above; type: cell-based; conditions: Trueperella pyogenes, AM9602, Stamm Am 9602, 37°C, read after ca. 20 h, read-out: MHK-Werte
# [5] = test system: Streptococcus suis Scc 9593; experiment: as above; type: cell-based; conditions: SCC9593, Stamm Scc 9593, 37°C, read after ca. 20 h, read-out: MHK-Werte
# [6] = test system: Clostridium perfringens Cl 9606; experiment: microbe, parasite or virus in culture; type: cell-based; conditions: CL9606, 20 h, read-out: MHK-Werte
# [7] = test system: Mycoplasma iowae M 95144; experiment: MIC (MHK), agar serial dilution, mycoplasma read microscopically; type: cell-based; conditions: Malacoplasma iowae, M95144, Stamm M 95144, read microscopically after 5 to 7 days, read-out: MHK-Werte
# [8] = test system: Salmonella spp. S 9659; experiment: MIC (MHK), agar serial dilution on Iso-Sensitest agar; type: cell-based; conditions: SPP.S9659, Stamm S 9659, 37°C, read after ca. 20 h, read-out: MHK-Werte
# Text: (§1) Die minimalen Hemmkonzentrationen (MHK) der erfindungsgemäßen Verbindungen wurden per Reihenverdünnungsverfahren auf Iso-Sensitest Agar (Oxoid) bestimmt. Für jede Prüfsubstanz wurde eine Reihe von Agarplatten hergestellt, die bei jeweils doppelter Verdünnung abfallende Konzentrationen des Wirkstoffs enthielten. Die Agarplatten wurden mit einem Multipoint-Inokulator (Denley) beimpft. Zum Beimpfen wurden Übernachtkulturen der Erreger verwandt, die zuvor so verdünnt wurden, dass jeder Impfpunkt ca. 10^4 koloniebildende Partikel enthielt. Die beimpften Agarplatten wurden bei 37°C bebrütet, und das Keimwachstum wurde nach ca. 20 Stunden abgelesen. Der MHK-Wert (µg/ml) gibt die niedrigste Wirkstoffkonzentration an, bei der mit bloßem Auge kein Wachstum zu erkennen war. Die Erfassung der MHK-Werte für Mycoplasmen erfolgte mikroskopisch nach einer Inkubationszeit von 5 bis 7 Tagen.
# (§2) In der nachstehenden Tabelle sind die MHK-Werte einer der erfindungsgemäßen Verbindungen im Vergleich zu Enrofloxacin als Referenzverbindung aufgeführt.
# [9] = test system: Fusobacterium necrophorum Ao 9620; experiment: as above; type: cell-based; conditions: AO9620, Stamm Ao 9620, 37°C, read after ca. 20 h, read-out: MHK-Werte
# [10] = test system: Mycoplasma hyorhinis M 9557; experiment: MIC (MHK), agar serial dilution, mycoplasma read microscopically; type: cell-based; conditions: M9557, Stamm M 9557, read microscopically after 5 to 7 days, read-out: MHK-Werte
# [11] = test system: Bordetella bronchiseptica B 9610; experiment: MIC (MHK), agar serial dilution on Iso-Sensitest agar; type: cell-based; conditions: B9610, Stamm B 9610, 37°C, read after ca. 20 h, read-out: MHK-Werte
# [12] = test system: E. coli Ec 9658; experiment: as above; type: cell-based; conditions: Escherichia coli, EC9658, Stamm Ec 9658, 37°C, read after ca. 20 h, read-out: MHK-Werte
# [13] = test system: Mycoplasma bovis M 9548; experiment: MIC (MHK), agar serial dilution, mycoplasma read microscopically; type: cell-based; conditions: Mycoplasmopsis bovis, M9548, Stamm M 9548, read microscopically after 5 to 7 days, read-out: MHK-Werte
# Text: as §1, with “Der MHK-Wert (µg/ml) gibt die niedrigste Wirkstoffkonzentration an, bei der mit bloßem Auge kein Wachstum zu erkennen war. Die Erfassung der MHK-Werte für Mycoplasmen erfolgte mikroskopisch nach einer Inkubationszeit von 5 bis 7 Tagen.” left out
# as §2
# [14] = test system: Actinobacillus pleuropneumoniae App 06/94; experiment: MIC (MHK), agar serial dilution on Iso-Sensitest agar; type: cell-based; conditions: APP06/94, Stamm App 06/94, 37°C, read after ca. 20 h, read-out: MHK-Werte
SMILES,AUC(0-t) at 24 h ([1]; im) [ng·h/mL],Cmax ([1]; im) [ng/mL],MRT ([1]; im) [h],half-life ([1]; im) [h],AUC(0-t) at 24 h ([1]; iv) [ng·h/mL],MRT ([1]; iv) [h],half-life ([1]; iv) [h],AUC(0-t) at 24 h ([1]; po) [ng·h/mL],Cmax ([1]; po) [ng/mL],MRT ([1]; po) [h],half-life ([1]; po) [h],MIC [2] [µg/mL],MIC [3] [µg/mL],MIC [4] [µg/mL],MIC [5] [µg/mL],MIC [6] [µg/mL],MIC [7] [µg/mL],MIC [8] [µg/mL],MIC [9] [µg/mL],also measured
"N#Cc1c(N2C[C@@H]3CCCN[C@@H]3C2)c(F)cc2c(=O)c(C(=O)O)cn(C3CC3)c12 [Beispiel 1, 8-Cyan-1-cyclopropyl-7-((1S,6S)-2,8-diazabicyclo[4.3.0]nonan-8-yl)-6-fluor-1,4-dihydro-4-oxo-3-chinolincarbonsäure]",19800,2400,8.5,6.9,20000,11.5,10.5,17400,1300,14.7,9.5,0.03,0.25,0.25,0.06,0.25,0.06,0.06,0.03,–
CCN1CCN(c2cc3c(cc2F)c(=O)c(C(=O)O)cn3C2CC2)CC1 [Enrofloxacin],8400,2100,3.9,2.9,10400,4.2,3.7,7000,1000,7.3,4.3,0.5,1,1,0.5,4,0.5,0.5,4,MIC [10]: 0.06 µg/mL; MIC [11]: 0.5 µg/mL; MIC [12]: 0.03 µg/mL; MIC [13]: 0.25 µg/mL; MIC [14]: 0.06 µg/mL

# — patent publication EP1215202A1, “Intermediates for the preparation of possibly substituted 8-cyano-1-cyclopropyl-7-(2,8-diazabicyclo-(4.3.0)-nonan-8-yl)-6-fluoro-1,4-dihydro-4-oxo-3-quinolin carboxylic acids and their derivatives” (BAYER AG, priority 1996, dated 1997)
